Common to all, as to format: in vivo
The test system of assay [1] is southern root-knot nematode (Meloidogyne incognita). Put plainly: Test Example 1: immersion of second stage juveniles in chemical solution, mobility inhibition. The conditions noted are these: compound alone, 24 hours, 25° C. The procedure: About 50 larvae at second stage juveniles of southern root-knot nematode (Meloidogyne incognita) were immersed in a chemical solution diluted to a predetermined concentration with distilled water and kept for 24 hours in a constant temperature room at 25° C. […] From these values, the mobility inhibition rate was determined by the following formula.
Mobility inhibition rate (%)=[1-{(1-B/A)/(1-B′/A′)}]×100
Further, a theoretical value (%) of the mobility inhibition rate was calculated by the Colby's formula and is also shown in brackets ( ) in Table 1. The measured value (%) of the mobility inhibition rate is higher than the theoretical value (%), and thus, the composition of the present invention has a synergistic effect for controlling nematode.

For assay [2] the test system is unchanged. As to the kind of experiment: Example 2: pot test, contaminated soil mixed with test agents, tomato seedlings, root knot index. The conditions noted are these: compound alone, 35th day after transplantation, non-treated area being 100. The protocol: 1 Liter of sand soil obtained by mixing paddy steam sterilization soil, sand soil and soil contaminated with southern root-knot nematode (Meloidogyne incognita) in a volume ratio of 2:2:1, was put into a 1/1,000,000 ha pot, and predetermined amounts of test agents were added and mixed, Immediately after addition of the test agents, the mixture was sufficiently mixed, and then, seedlings of tomato (cultivar: kyoryoku bei ju) were transplanted. On the 35th day after transplantation, the root knot index (0 to 100%) formed by nematode was visually determined. The test was carried out by two replications.
Further, a theoretical value determined by the Colby's formula is shown in brackets ( ) in Table 2.

The test system is the same in assay [3]. Put plainly: Example 3: cup test, contaminated soil mixed with test agents, cucumber seeds, control value from root knot index. The conditions noted are these: compound alone, 26th day after seeding, =100−the root knot index. The procedure: Soil contaminated with southern root-knot nematode (Meloidogyne incognita) was put in a 200 ml polypropylene cup, and predetermined amounts of test agents were added and mixed. Immediately after the addition of the test agents, the mixture was thoroughly mixed and then seeded with three seeds of cucumber. On the 26th day after seeding, the root knot index (0 to 100%) formed by nematode was visually determined.
As the test results, from the root knot index based on the root knot index in the non-treated area being 100, the control value (=100−the root knot index) was calculated, and the results are shown in Tables 3 and 4. Further, a theoretical value obtained by the Colby's formula (=Control value of compound A+Control value of compound B−((Control value of compound A×Control value of compound B)/100)) is also shown in brackets ( ) in Tables 3 and 4.

The structures appear in SMILES notation.

One may read the inhibition as the change of the read-out against control, counted positive when it falls.

As to `O=S(=O)(CCC(F)=C(F)F)c1ncc(Cl)s1` [Fluensulfone, fluensulfone], the “Mobility inhibition rate (%)” value in assay [1] (0.31 ppm) is recorded as 36.4%; in assay [1] (0.63 ppm), 41.7%; in assay [1] (1.25 ppm), 48.1%; in assay [1] (2.5 ppm), 54.7%; in assay [1] (5 ppm) it was 69.1%. The “Average root knot index” value in assay [2] (2500 g/ha) is recorded as 25.7. The compound further displayed a Control value in assay [3] (200 g/ha) of 73.3.
In the case of `CCOP(=O)(SC(C)CC)N1CCSC1=O` (stereo not drawn) [Fosthiazate, fosthiazate], the inhibition at 0.31 ppm in assay [1] (Meloidogyne incognita, 0.31 ppm, read-out: Mobility inhibition rate (%)) came to 0.2%. The inhibition at 0.63 ppm in assay [1] (Meloidogyne incognita, 0.63 ppm, read-out: Mobility inhibition rate (%)) came to 15%. Moreover, in assay [1] (Meloidogyne incognita, 1.25 ppm, read-out: Mobility inhibition rate (%)), the inhibition at 1.25 ppm came out at 22.7%. Further, the inhibition at 2.5 ppm in assay [1] (Meloidogyne incognita, 2.5 ppm, read-out: Mobility inhibition rate (%)) turned out to be 55.7%. Also, in assay [1] (Meloidogyne incognita, 5 ppm, read-out: Mobility inhibition rate (%)), the inhibition at 5 ppm came out at 96.2%. Further, the “Average root knot index” value in assay [2] (3000 g/ha) was 11.4. The Control value in assay [3] (125 g/ha) is given as 70.0; in assay [3] (188 g/ha), 73.3; in assay [3] (250 g/ha), 83.3; in assay [3] (375 g/ha) it was 90.0; in assay [3] (500 g/ha), 90.0.

Values taken from patent US20170354152A1, “PESTICIDAL COMPOSITION AND METHOD FOR CONTROLLING PESTS” (priority 2015, published 2017).
